Assay results: ChEMBL document CHEMBL4393693, “Synthesis and Structure-Activity relationship of 1-(5-isoquinolinesulfonyl)piperazine analogues as inhibitors of Mycobacterium tuberculosis IMPDH” (Eur J Med Chem, 2019)

Test: Inhibition of recombinant N-terminal His6-tagged Mycobacterium tuberculosis H37Rv IMPDH expressed in Escherichia coli BL21 (DE3) cells assessed as reduction of NAD+ to NADH using IMP and NAD+ as substrate treated 1 min after substrate incubation with enzyme by UV-visible spectrophotometry

Compound `O=C(NCCNS(=O)(=O)c1cccc2cnccc12)C1CCCCC1` has an IC50 of 500 to 1500 nM.
